Source: patent publication US10160747B2, “Compounds and methods for kinase modulation, and indications therefor” (Plexxikon Inc., priority 2016, dated 2018)
pIC50: −log10 of the molar value.

Experiments:
[1] = target: T1, FLT3-ITD (Homo sapiens, UniProt P36888); assay: FLT3-ITD recombinant enzyme kinase assay (AlphaScreen); format: biochemical; conditions: 8 pt; read-out: FLT3_ITD 8 pt: IC50
T1 sequence (P36888 1-993): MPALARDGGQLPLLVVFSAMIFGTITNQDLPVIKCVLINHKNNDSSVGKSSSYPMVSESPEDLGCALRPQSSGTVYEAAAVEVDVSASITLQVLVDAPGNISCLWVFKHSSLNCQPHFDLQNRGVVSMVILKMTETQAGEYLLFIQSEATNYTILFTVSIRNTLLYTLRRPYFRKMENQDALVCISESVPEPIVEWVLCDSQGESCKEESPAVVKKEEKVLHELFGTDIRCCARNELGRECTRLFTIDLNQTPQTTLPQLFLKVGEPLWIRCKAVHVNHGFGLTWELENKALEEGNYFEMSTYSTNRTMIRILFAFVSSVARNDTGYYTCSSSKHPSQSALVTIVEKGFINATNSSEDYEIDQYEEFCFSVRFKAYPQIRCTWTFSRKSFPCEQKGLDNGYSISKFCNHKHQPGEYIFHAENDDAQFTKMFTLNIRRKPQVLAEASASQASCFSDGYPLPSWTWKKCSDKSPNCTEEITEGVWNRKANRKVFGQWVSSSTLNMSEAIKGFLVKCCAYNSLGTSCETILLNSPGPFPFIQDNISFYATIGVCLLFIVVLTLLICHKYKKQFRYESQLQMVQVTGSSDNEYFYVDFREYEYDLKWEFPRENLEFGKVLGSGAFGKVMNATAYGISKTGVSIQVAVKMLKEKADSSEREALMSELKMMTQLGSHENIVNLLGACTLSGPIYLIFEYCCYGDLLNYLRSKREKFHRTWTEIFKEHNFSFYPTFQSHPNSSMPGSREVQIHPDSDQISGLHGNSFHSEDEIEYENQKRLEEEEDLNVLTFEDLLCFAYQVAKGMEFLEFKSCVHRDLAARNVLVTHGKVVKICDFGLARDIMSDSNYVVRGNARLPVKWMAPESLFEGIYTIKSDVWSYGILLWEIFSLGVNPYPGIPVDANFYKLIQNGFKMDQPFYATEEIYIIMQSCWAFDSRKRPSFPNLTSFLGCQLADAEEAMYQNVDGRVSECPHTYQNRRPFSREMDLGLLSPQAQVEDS
Method in brief: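 Enzyme plus biotinylated poly(Glu4-Tyr) substrate (30 nM) mixed with compound, then ATP added. Donor beads went in for 20 min at room temperature, then PY20 acceptor beads for 60 min. AlphaScreen read; ATP was 10 μM for FLT3-ITD/D835Y and 100 μM for c-KIT.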

[2] = tested on: MOLM-14 F691L (endogenous FLT3 ITD and transfected FLT3 F691L); assay: MOLM-14 F691L cell proliferation assay (CellTiter-Glo); format: cell-based; conditions: Homo sapiens, MOLM-14, 72 h; 3 d growth, GMean
Method in brief: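 Three-day proliferation at 37 °C/5% CO2 of FLT3-ITD MOLM-14 lines with D835Y or F691L mutation, seeded 1×10^4 per well. Compounds at eight points, top 1 μM final, 0.2% DMSO. ATP luminescence (CellTiter-Glo) gives IC50.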

Q: `Cc1cc(CC(=O)Nc2cccc(C(F)(F)F)c2)ccc1-c1cnc2[nH]c(-c3ccccc3)cc2c1` [Compound P-0002, 2-[3-methyl-4-(2-phenyl-1H-pyrrolo[2,3-b]pyridin-5-yl)phenyl]-N-[3-(trifluoromethyl)phenyl]acetamide] was tested. Which pIC50 [1] did it give?
A: The pIC50 was 5.00 to 10.00.

Q: What does the source list for `O=C(Cc1ccc(-c2cnc(Nc3cnn(C(F)F)c3)nc2)c(F)c1)Nc1cc(C(F)(F)F)ccn1` [Compound P-0024, 2-[4-[2-[[1-(difluoromethyl)pyrazol-4-yl]amino]pyrimidin-5-yl]-3-fluoro-phenyl]-N-[4-(trifluoromethyl)-2-pyridyl]acetamide]?
A: pIC50 [1]: 5.00 to 10.00; pIC50 [2]: 5.00 to 10.00

Q: With `COc1ncc(NC(=O)Cc2ccc(-c3cnc(Nc4cn[nH]c4)nc3)cc2)cc1C(F)(F)F` [Compound P-0025, N-[6-methoxy-5-(trifluoromethyl)-3-pyridyl]-2-[4-[2-(1H-pyrazol-4-ylamino)pyrimidin-5-yl]phenyl]acetamide] as the molecule, how does the pIC50 [1] read?
A: The pIC50 was 5.00 to 10.00.

Q: And the pIC50 [2]?
A: The pIC50 was 5.00 to 10.00.

Q: `COc1ncc(NC(=O)Cc2ccc(-c3cnc(Nc4cn[nH]c4)nc3)cc2F)cc1C(F)(F)F` [Compound P-0026, 2-[2-fluoro-4-[2-(1H-pyrazol-4-ylamino)pyrimidin-5-yl]phenyl]-N-[6-methoxy-5-(trifluoromethyl)-3-pyridyl]acetamide] was tested. Which pIC50 [1] did it give?
A: Its pIC50 is 5.00 to 10.00.

Q: What about the pIC50 [2] of the same molecule?
A: Its pIC50 is 5.00 to 10.00.

Q: What does the source list for `Cc1ncc(NC(=O)Cc2ccc(-c3cnc(Nc4cn[nH]c4)nc3)cc2F)cc1C(F)(F)F` [Compound P-0027, 2-[2-fluoro-4-[2-(1H-pyrazol-4-ylamino)pyrimidin-5-yl]phenyl]-N-[6-methyl-5-(trifluoromethyl)-3-pyridyl]acetamide]?
A: pIC50 [1]: 5.00 to 10.00; pIC50 [2]: 5.00 to 10.00

Q: `O=C(Cc1ccc(-c2cnc3[nH]cc(F)c3c2)cc1F)Nc1ccnc(C(F)(F)F)c1` [Compound P-0029, 2-[2-fluoro-4-(3-fluoro-1H-pyrrolo[2,3-b]pyridin-5-yl)phenyl]-N-[2-(trifluoromethyl)-4-pyridyl]acetamide] was tested. Which pIC50 [1] did it give?
A: The pIC50 was 5.00 to 10.00.

Q: `O=C(Cc1ccc(-c2cnc3[nH]c(Cl)cc3c2)cc1F)Nc1ccnc(C(F)(F)F)c1` [Compound P-0030, 2-[4-(2-chloro-1H-pyrrolo[2,3-b]pyridin-5-yl)-2-fluoro-phenyl]-N-[2-(trifluoromethyl)-4-pyridyl]acetamide] was tested. Which pIC50 [1] did it give?
A: The pIC50 was 5.00 to 10.00.

Q: And the pIC50 [2]?
A: Its pIC50 is 5.00 to 10.00.

Q: With `CC(=O)c1c[nH]c2ncc(-c3ccc(CC(=O)Nc4ccnc(C(F)(F)F)c4)c(F)c3)cc12` [Compound P-0031, 2-(4-(3-acetyl-1H-pyrrolo[2,3-b]pyridin-5-yl)-2-fluorophenyl)-N-(2-(trifluoromethyl)pyridin-4-yl)acetamide] as the molecule, how does the pIC50 [1] read?
A: The pIC50 was 5.00 to 10.00.

Q: Which results are given for `O=C(Cc1ccc(-c2cnc3[nH]cc(C(=O)C4CC4)c3c2)cc1F)Nc1ccnc(C(F)(F)F)c1` [Compound P-0032, 2-[4-[3-(cyclopropanecarbonyl)-1H-pyrrolo[2,3-b]pyridin-5-yl]-2-fluoro-phenyl]-N-[2-(trifluoromethyl)-4-pyridyl]acetamide]?
A: pIC50 [1]: 5.00 to 10.00; pIC50 [2]: 5.00 to 10.00

Q: With `O=C(Cc1ccc(-c2cnc(Nc3cnn4ccccc34)nc2)cc1F)Nc1ccnc(C(F)(F)F)c1` [Compound P-0033, 2-[2-fluoro-4-[2-(pyrazolo[1,5-a]pyridin-3-ylamino)pyrimidin-5-yl]phenyl]-N-[2-(trifluoromethyl)-4-pyridyl]acetamide] as the molecule, how does the pIC50 [1] read?
A: The pIC50 was 5.00 to 10.00.

Q: What about the pIC50 [2] of the same molecule?
A: The pIC50 was 5.00 to 10.00.

Q: What does the source list for `COc1ncc(NC(=O)Cc2ccc(-c3cnc4[nH]cc(F)c4c3)cc2F)cc1C(F)(F)F` [Compound P-0034, 2-[2-fluoro-4-(3-fluoro-1H-pyrrolo[2,3-b]pyridin-5-yl)phenyl]-N-[6-methoxy-5-(trifluoromethyl)-3-pyridyl]acetamide]?
A: pIC50 [1]: 5.00 to 10.00; pIC50 [2]: 5.00 to 10.00

Q: Which results are given for `COc1ncc(NC(=O)Cc2ccc(-c3cnc4[nH]cc(C(C)=O)c4c3)cc2F)cc1C(F)(F)F` [Compound P-0035, 2-[4-(3-acetyl-1H-pyrrolo[2,3-b]pyridin-5-yl)-2-fluoro-phenyl]-N-[6-methoxy-5-(trifluoromethyl)-3-pyridyl]acetamide]?
A: pIC50 [1]: 5.00 to 10.00; pIC50 [2]: 5.00 to 10.00

Q: With `COc1ncc(NC(=O)Cc2ccc(-c3cnc4[nH]cc(C(=O)C5CC5)c4c3)cc2F)cc1C(F)(F)F` [Compound P-0036, 2-[4-[3-(cyclopropanecarbonyl)-1H-pyrrolo[2,3-b]pyridin-5-yl]-2-fluoro-phenyl]-N-[6-methoxy-5-(trifluoromethyl)-3-pyridyl]acetamide] as the molecule, how does the pIC50 [1] read?
A: The pIC50 was 5.00 to 10.00.

Q: How did the pIC50 [1] turn out when `COc1ncc(NC(=O)Cc2ccc(-c3cnc(Nc4cnn5ccccc45)nc3)cc2F)cc1C(F)(F)F` [Compound P-0037, 2-[2-fluoro-4-[2-(pyrazolo[1,5-a]pyridin-3-ylamino)pyrimidin-5-yl]phenyl]-N-[6-methoxy-5-(trifluoromethyl)-3-pyridyl]acetamide] was run?
A: Its pIC50 is 5.00 to 10.00.

Q: And the pIC50 [2]?
A: Its pIC50 is 5.00 to 10.00.

Q: Which results are given for `COc1ncc(NC(=O)Cc2ccc(-c3cnc4[nH]c(Cl)cc4c3)cc2F)cc1C(F)(F)F` [Compound P-0038, 2-[4-(2-chloro-1H-pyrrolo[2,3-b]pyridin-5-yl)-2-fluoro-phenyl]-N-[6-methoxy-5-(trifluoromethyl)-3-pyridyl]acetamide]?
A: pIC50 [1]: 5.00 to 10.00; pIC50 [2]: 5.00 to 10.00

Q: `CC(C)(C)c1ccc(NC(=O)Cc2ccc(-c3cnc4[nH]cc(F)c4c3)cc2F)cn1` [Compound P-0043, N-(6-tert-butyl-3-pyridyl)-2-[2-fluoro-4-(3-fluoro-1H-pyrrolo[2,3-b]pyridin-5-yl)phenyl]acetamide] was tested. Which pIC50 [1] did it give?
A: The pIC50 was 5.00 to 10.00.

Q: And the pIC50 [2]?
A: The pIC50 was 5.00 to 10.00.

Q: `COc1ncc(NC(=O)Cc2cc(F)c(-c3cnc4[nH]c(Cl)cc4c3)cc2F)cc1C(F)(F)F` [Compound P-0045, 2-[4-(2-chloro-1H-pyrrolo[2,3-b]pyridin-5-yl)-2,5-difluoro-phenyl]-N-[6-methoxy-5-(trifluoromethyl)-3-pyridyl]acetamide] was tested. Which pIC50 [1] did it give?
A: Its pIC50 is 5.00 to 10.00.

Q: How did the pIC50 [1] turn out when `COc1ncc(NC(=O)Cc2ccc(-c3cnc4[nH]c(Cl)cc4c3)c(F)c2)cc1C(F)(F)F` [Compound P-0046, 2-[4-(2-chloro-1H-pyrrolo[2,3-b]pyridin-5-yl)-3-fluoro-phenyl]-N-[6-methoxy-5-(trifluoromethyl)-3-pyridyl]acetamide] was run?
A: The pIC50 was 5.00 to 10.00.

Q: With `COc1ncc(NC(=O)Cc2cc(F)c(-c3cnc4[nH]cc(F)c4c3)cc2F)cc1C(F)(F)F` [Compound P-0051, 2-[2,5-difluoro-4-(3-fluoro-1H-pyrrolo[2,3-b]pyridin-5-yl)phenyl]-N-[6-methoxy-5-(trifluoromethyl)-3-pyridyl]acetamide] as the molecule, how does the pIC50 [1] read?
A: Its pIC50 is 5.00 to 10.00.

Q: `O=C(Cc1ccc(-c2cnc3c(c2)C2(CC2)C(=O)N3)cc1F)Nc1cncc(C(F)(F)F)c1` [Compound P-0064, 2-(2-fluoro-4-(2′-oxo-1′,2′-dihydrospiro[cyclopropane-1,3′-pyrrolo[2,3-b]pyridin]-5′-yl)phenyl)-N-(5-(trifluoromethyl)pyridin-3-yl)acetamide] was tested. Which pIC50 [1] did it give?
A: Its pIC50 is 5.00 to 10.00.

Q: With `O=C(Cc1cc(F)c(-c2cnc(Nc3cnn4ccccc34)nc2)cc1F)Nc1cncc(C(F)(F)F)c1` [Compound P-0075, 2-[2,5-difluoro-4-[2-(pyrazolo[1,5-a]pyridin-3-ylamino)pyrimidin-5-yl]phenyl]-N-[5-(trifluoromethyl)-3-pyridyl]acetamide] as the molecule, how does the pIC50 [1] read?
A: The pIC50 was 5.00 to 10.00.

Q: How did the pIC50 [1] turn out when `Cn1cnc(Nc2ncc(-c3ccc(CC(=O)Nc4cc(C(C)(F)F)ccn4)cc3F)cn2)c1` [Compound P-0171, N-[4-(1,1-difluoroethyl)-2-pyridyl]-2-[3-fluoro-4-[2-[(1-methylimidazol-4-yl)amino]pyrimidin-5-yl]phenyl]acetamide] was run?
A: The pIC50 was 5.00 to 10.00.
